The record followed here is patent publication US12318457B2, “Oligosaccharide linker, linker-payload comprising the same and glycan chain-remodeled antibody-drug conjugate, preparation methods and uses thereof” (GENEQUANTUM HEALTHCARE (SUZHOU) CO., LTD., priority 2022, dated 2025).

Like-named read-outs stand apart in the source and are kept apart here. Non-standard residues stand in square brackets, D forms with d. Residues, ends and D or L forms follow the SMILES beside them. *: point of attachment. Dolaproine = CO[C@@H]([C@@H]1CCCN1)[C@@H](C)C(=O)O; Dil = CC[C@H](C)[C@H](NC)[C@@H](CC(=O)O)OC; X1 = C[C@@H](N*)[C@@H](O)c1ccccc1; NMeV = CN[C@H](C(=O)O)C(C)C

Common to all, as to type: cell-based
Test [1] concerns ErbB2/HER2-positive human breast cancer cells BT-474. Briefly: Tumor cell proliferation inhibition (CellTiter Glo), BT-474. The procedure:
(§1) 1) ErbB2/HER2-positive human breast cancer cells BT-474, ErbB2/HER2-positive human gastric cancer cells NCI-N87 and ErbB2/HER2-negative human liver cancer cells HepG2 were inoculated into a 96-well cell plate at 100 μL/well (1000 to 10000 cells), and incubated overnight in a cell incubator under the conditions of 37° C., 5% CO2, 95% air and 100% humidity.
(§2) 3) The cell plate was removed from the 37° C. cell incubator, and equilibrated for about 30 min to rt. 100 μL of CellTiter Glo reagent was added into each well, a shaker shook for 2 min, followed by standing in a dark place at rt for 10 min, and the relative light unit (RLU) was measured with a Cytation 3 microplate reader.
A general note: ATP-based viability assays read luminescence as a measure of living cells.

For test [2], the system named is ErbB2/HER2-positive human gastric cancer cells NCI-N87. Description: Tumor cell proliferation inhibition (CellTiter Glo), NCI-N87. The procedure: as §1, §2
In test [3] the test system is human liver cancer cells HepG2. Description: Tumor cell proliferation inhibition (CellTiter Glo), HepG2. As for the experimental part: as §1, §2
(§3) For example, BxPC-3, FaDu, HepG2 and other human tumor cells were selected.
(§4) For example, TROP2-positive human tumor cells such as BxPC-3 (human pancreatic cancer cell) and FaDu (human throat cancer cell), and TROP2-negative tumor cells such as HepG2 (human liver cancer cell) were selected.

The test system of test [4] is BxPC-3 (human pancreatic cancer cell). Description: Tumor cell proliferation inhibition, BxPC-3. As for the experimental part: as §1, §2, §3, §4
Test [5] concerns FaDu (human throat cancer cell). Description: Tumor cell proliferation inhibition, FaDu. The procedure: as §1, §2, §3, §4

As for `CC[C@H](C)[C@@H]([C@@H](CC(=O)N1CCC[C@H]1[C@H](OC)[C@@H](C)C(=O)N[C@H](C)[C@@H](O)c1ccccc1)OC)N(C)C(=O)[C@@H](NC(=O)[C@@H](NC)C(C)C)C(C)C` [MMAE, monomethylauristatin E] (H-[NMeV]V[Dil][Dolaproine]-X1), the IC50 in test [1] (BT-474, ErbB2/HER2-positive, 72 to 120 h, read-out: Proliferation Inhibition Effect on Tumor Cells (IC50)) came out at 0.272 nM; in test [2] (NCI-N87, ErbB2/HER2-positive, 72 to 120 h, read-out: Proliferation Inhibition Effect on Tumor Cells (IC50)), 0.248 nM; in test [3] (HepG2, ErbB2/HER2-negative, 72 to 120 h, read-out: Proliferation Inhibition Effect on Tumor Cells (IC50)), 0.567 nM; in test [3] (HepG2, TROP2-negative, Table 7, read-out: Proliferation Inhibition Action on Tumor Cells (IC50)), 0.398 nM; in test [4] (BxPC-3, TROP2-positive, Table 7, read-out: Proliferation Inhibition Action on Tumor Cells (IC50)), 0.388 nM; in test [5] (TROP2-positive, Table 7, read-out: Proliferation Inhibition Action on Tumor Cells (IC50)), 0.167 nM. The “maximum killing percentage relative to the control group” value in test [1] (BT-474, control puromycin 5 μM) is given as 86.46%; in test [2] (NCI-N87, control puromycin 5 μM) it was 90.78%; in test [3] (HepG2, ErbB2/HER2-negative, control puromycin 5 μM) it was 74.88%; in test [3] (HepG2, TROP2-negative), 83.43%; in test [4] (BxPC-3) it was 99.56%; in test [5], 90.87%.
